Measurements from publication PMC10654507, “A cleavable chimeric peptide with targeting and killing domains enhances LPS neutralization and antibacterial properties against multi-drug resistant E. coli” (Communications Biology, 2023).
In brackets after ≈: the same amount, converted by molar mass. Where two headings read alike, the source gives them in different places. Residues, ends and D or L forms follow the SMILES beside them.

Assays:
[1] = test system: LPS; format: in vivo, mouse; parameters: key: 1 represents a mouse death; 0 represents no death; settings: Supplementary Fig. 3b source data, LPS challenge
Procedure: Supplementary Figure 3. Therapeutic eﬀicacy of cleavable chimeric peptide R7 in the mice
challenged with MDR E. coli or LPS After the intraperitoneal injection with MDR E. coli (a) or LPS
(b) at a concentration of LD100, the mice were treated with 7 μmol/kg R7 at 0.5 h and 8 h, respectively.
The mouse survival was recorded for 7 d. The mice injected with MDR E. coli/LPS or saline were used

[2] = test system: MDR E. coli; assay: Antibacterial activity after incubation in human serum (inhibition assay); format: cell-based, Escherichia coli; settings: Supplementary Fig. 2c source data, mean
Procedure: Serum stability of R7 and its parent-L7 was tested as previously described with minor modifications[46],[53]. […] The samples were incubated at 4 °C for 15 min and centrifuged for 10 min at 12,000 rpm. The supernatants were analyzed by RP-HPLC or inhibition zone method. Moreover, after incubation in serum for 2 h, R7 was analyzed by matrix assisted laser desorption/ionization-time of flight mass spectrometry (MALDI-TOF MS) and high-performance liquid chromatography-mass spectrometry (HPLC-MS), respectively.
Supplementary Figure 2. Serum stability and release of peptides in human serum. a Detection of the peak area change of peptides in serum by RP-HPLC. b The remaining rate of peptides in bovine serum. c The antibacterial activity of peptides against MDR E. coli in serum detected by an inhibition assay. d The MALDI-TOF mass spectrometry of R7 after incubation in bovine serum for 2 h. The experiments were repeated three times. Data in a and d is representative of three biological replicates.
The results are given as the mean ± SD of three independent experiments in b and c. Different lower-case letters indicate a significant difference between the two groups (p<0.05).
(§1) (1 picture or pasted object on this page, not shown here)

[3] = test system: S. typhimurium CVCC533; format: cell-based, Salmonella typhimurium; settings: repeated three times; for MBC: lowest concentration giving 99.9% reduction of the inoculum; for MIC: microtiter broth dilution, 10^5 CFU/mL, 37 °C, 16 ~ 18 h
Procedure: The minimum inhibitory concentration (MIC) and minimum bactericidal concentration (MBC) of peptides were determined by the microtiter broth dilution method according to Clinical and Laboratory Standards Institute (CLSI) guidelines. […] PBS was used as the negative control. […] The MBC value was calculated as the lowest concentration of peptides resulting in a 99.9% reduction of the original inoculum. All experiments were repeated three times.

[4] = test system: p65, p-p65, ERK1/2, p-ERK1/2 and IκBα; assay: Western blotting of NF-κB and MAPK pathway proteins in lung tissues of LPS-challenged mice; format: in vivo, mouse; settings: for IκBα/β-actin ratio / p-ERK1/2/ERK1/2 ratio / p-p65/p65 ratio: Supplementary Fig. 5b-d source data, lung tissues, peptide + LPS, mean; for ERK1/2 phosphorylation: lung tissues of 24 h, western blot
Procedure: Additionally, the lung tissues of 24 h were homogenized and suspended in […] buffer, and the protein levels of supernatants were quantified using a Bradford protein assay kit. A total of 30 μg proteins were analyzed on a sodium dodecyl sulfate-polyacrylamide gel electrophoresis gel and were immunoblotted onto PVDF membranes, followed by an incubation with the primary antibodies of p65, p-p65, extracellular signal-regulated kinase (ERK)1/2, p-ERK1/2 and IκBα overnight at 4 °C. After washing, the blots were incubated with the peroxidase conjugated goat-rabbit or goat-mouse antibodies. Relative protein expression levels were quantified by a densitometric measurement of chemiluminescence (ECL) reaction band. β-actin was used as the internal reference. […]
pathways in lung tissues.
LPS. a The protein levels of p65, p-p65, ERK1/2, p-ERK1/2, and IκBα in lungs were analyzed by western blotting. b Densitometric analysis of p-ERK1/2/ERK1/2 ratio. c. Densitometric analysis of p-p65/p65 ratio. d Densitometric analysis of IκBα/β-actin ratio. All data were analyzed with one-way ANOVA, and data are means ± SD (n = 3). p-values< 0.05 were considered significant. **, p < 0.01, […]
as §1

[5] = test system: RAW264.7 cells; assay: Cytotoxicity, MTT method; format: cell-based; settings: for RAW 264.7 cell survival: 128 μM; for cytotoxicity: low concentration (0 ~ 32 μM)
Procedure: RAW264.7 cells (2.5 × 10^4 cells/mL, 100 μL) were added into the 96-well plate and cultured at 37 °C in 5% CO2 for 24 h. After removing the medium and washing twice with PBS, 100 μL peptides (1, 2, 4, 8, 16, 32, 64 and 128 μM) were added to each well. PBS was served as the negative control. After incubation for 24 h, 20 μL MTT (5 mg/mL) was added into each well and incubated for another 4 h. Then, the supernatant was removed and 150 μL dimethylsulfoxide (DMSO) was added into the plate and shaken for 10 min. The absorbance of each well was measured at 570 nm and the survival rate of cells was calculated as follows: Survival (%) = [(Abspeptide/ Abscontrol)] × 100, where Abspeptide and Abscontrol present the absorbance of peptide and PBS control, respectively.

[6] = test system: MDR E. coli CVCC195; assay: Lung injury score (H&E histology), E. coli-challenged mice; format: in vivo, mouse; settings: for lung injury score: 7 μmol/kg i.p. pre-treatment, three mice/group; for Pathological analysis of lung (lung injury score): Fig. 6b source data, peptide + E. coli, mean
Procedure: Lung injury was analyzed histologically at 12 h or 24 h. a Histopathological images of lung sections after staining with hematoxylin and eosin (H&E). Images are presented at a magnification of 100×. b Pathological analysis of lung. Lung injury involves in inflammation (such as peribronchial, perivascular, intrabronchial, and pulmonary interstitial one), bronchial exudate, and alveolar septal thickening, respectively. The specific degree of lung injury of each mouse is assessed by Score 0 (asymptomatic), Score 1 (mild), Score 2 (moderate), and Score 3 (severe), respectively. c The number of counted infiltrated inflammatory cells within processed lung sections from a. Data represent the mean ± SD of three independent experiments. Different lower-case letters indicate a significant difference between the two groups (p < 0.05).
Lung tissues were taken at 12 h and 24 h, respectively, washed with PBS, and fixed in 4% paraformaldehyde overnight. After dehydration in different concentrations of ethanol (including 75%, 85%, 90%, and 95%, respectively), the tissues were embedded in paraffin, sliced, and stained with hematoxylin. Observation was performed under a light microscope. The mice only injected with E. coli, LPS or PBS was regard as the negative or blank control.

[7] = event at day 2, one cell per mouse
[8] = event at day 3, one cell per mouse
[9] = event at day 7, one cell per entry
[10] = incubation in human serum 0.5 h

| Compound | therapeutic efficacy, survival, single-animal event [1, 7] | therapeutic efficacy, survival, single-animal event [1, 8] | therapeutic efficacy, survival, single-animal event [1, 9] | antibacterial activity against MDR E. coli in human serum detected by an inhibition assay ([2]; incubation in human serum 0 h) | antibacterial activity against MDR E. coli in human serum detected by an inhibition assay [2, 10] | antibacterial activity against MDR E. coli in human serum detected by an inhibition assay ([2]; incubation in human serum 1 h) | antibacterial activity against MDR E. coli in human serum detected by an inhibition assay ([2]; incubation in human serum 2 h) | antibacterial activity against MDR E. coli in human serum detected by an inhibition assay ([2]; incubation in human serum 4 h) | antibacterial activity against MDR E. coli in human serum detected by an inhibition assay ([2]; incubation in human serum 8 h) | MBC [3] [µM] | MIC [3] [µM] | IκBα/β-actin ratio [4] | p-ERK1/2/ERK1/2 ratio [4] | p-p65/p65 ratio [4] | ERK1/2 phosphorylation [4] | RAW 264.7 cell survival [5] [%] | cytotoxicity [5] | lung injury score ([6]; 12 h after E. coli infection) [points] | lung injury score ([6]; 24 h after E. coli infection) [points] | Pathological analysis of lung (lung injury score) ([6]; 12 h) | other results |
| --- | --- | --- | --- | --- | --- | --- | --- | --- | --- | --- | --- | --- | --- | --- | --- | --- | --- | --- | --- | --- | --- |
| CSCC[C@H](NC(=O)[C@H](CCCNC(=N)N)NC(=O)[C@H](Cc1c[nH]c2ccccc12)NC(=O)[C@H](C)NC(=O)[C@H](Cc1c[nH]c2ccccc12)NC(=O)[C@H](CCCNC(=N)N)NC(=O)[C@H](Cc1c[nH]c2ccccc12)NC(=O)[C@H](C)NC(=O)[C@H](CCCCN)NC(=O)[C@H](Cc1ccccc1)NC(=O)[C@H](CCCNC(=N)N)NC(=O)[C@H](CCCNC(=N)N)NC(=O)[C@H](CCCCN)NC(=O)[C@H](CCCNC(=N)N)NC(=O)[C@H](CCCCN)NC(=O)[C@H](Cc1ccccc1)NC(=O)[C@H](Cc1ccccc1)NC(=O)[C@H](CO)NC(=O)[C@H](C)NC(=O)[C@H](CCCNC(=N)N)NC(=O)[C@@H](NC(=O)[C@H](CCCCN)NC(=O)[C@H](Cc1c[nH]c2ccccc12)NC(=O)[C@H](CCCNC(=N)N)NC(=O)CNC(=O)[C@H](CCC(N)=O)NC(=O)[C@@H](NC(=O)[C@@H](N)CCCNC(=N)N)C(C)C)C(C)C)C(=O)N[C@@H](CCCCN)C(=O)N[C@@H](CCCCN)C(=O)N[C@@H](CC(C)C)C(=O)N[C@@H](C)C(=O)N[C@@H](C)C(=O)N1CCC[C@H]1C(=O)N[C@@H](CO)C(=O)O [R7] (H-RVQGRWKVRASFFKRKRRFKAWRWAWRMKKLAAPS-OH) | 1 | 1 | 0 | 0.8933 | 0.91 | 0.91 | 0.8967 | 0.9033 | 0.8967 | 2.26 (≈ 10.1 µg/mL) | 1.13 (≈ 5.06 µg/mL) | 1.322 | 1.134 | 0.775 | not markedly attenuated | 58.2 | no hemolysis and cytotoxicity | 4.3 | 2.0 | 2.333 | Pathological analysis of lung (lung injury score) ([6]; 24 h): 2 |
| CSCC[C@H](NC(=O)[C@H](CCCNC(=N)N)NC(=O)[C@H](Cc1c[nH]c2ccccc12)NC(=O)[C@H](C)NC(=O)[C@H](Cc1c[nH]c2ccccc12)NC(=O)[C@H](CCCNC(=N)N)NC(=O)[C@H](Cc1c[nH]c2ccccc12)NC(=O)[C@H](C)NC(=O)[C@H](CCCCN)NC(=O)[C@@H](N)Cc1ccccc1)C(=O)N[C@@H](CCCCN)C(=O)N[C@@H](CCCCN)C(=O)N[C@@H](CC(C)C)C(=O)N[C@@H](C)C(=O)N[C@@H](C)C(=O)N1CCC[C@H]1C(=O)N[C@@H](CO)C(=O)O [L7] (H-FKAWRWAWRMKKLAAPS-OH) | 1 | 1 | 0 | 0.99 | 0.9833 | 0.9833 | 0.8667 | 0.78 | 0 | 18.1 (≈ 38.6 µg/mL) | 18.1 (≈ 38.6 µg/mL) | 1.143 | 1.133 | 1.216 | not markedly attenuated | 87.7 | no hemolysis and cytotoxicity | 7.7 | 5.7 | 6.667 | Pathological analysis of lung (lung injury score) ([6]; 24 h): 7 |
